The values that follow come from patent publication US5279543A, “Device for iontophoretic non-invasive sampling or delivery of substances” (priority 1992, dated 1994).

“And” between values parts separate entries of the source, which are not always exact repeats. Equal values may be shown once. “Also recorded” adds a separate entry of the source. Where a name gives a salt, the structure may show the parent alone.

Data set [1] in a line: In vitro iontophoretic delivery of P.S.O.S. from chamber 16A. Type of data set: in vitro ADME. The procedure:
(b) P.S.O.S. (Potassium Sucrose Octa Sulfate) P.S.O.S., 0.6 ml of 1.5 mg/ml solution in a boric buffer is placed in chamber 16A and boric acid buffer alone is placed in chamber 16C of FIG. 1, 2 or 3. Using a direct current of 0.5 mA (0.65 mA/cm^2) transport of P.S.O.S. is observed up to 5 μg/hr.

The conditions of data set [2]: charged and uncharged TRH; excised nude mouse skin; cited from earlier work.
The procedure of data set [3]:
(1) Leakage tests (without current) using dye and silicone rubber than skin; (2) leakage tests using dye and skin (without current); and (3) iontophoretic tests using the drug solutions and skin (with and without current). Procedures (1) and (2) were evaluated by visually inspecting the cell. […] The activity of the skin 13 and of the samples taken from the receptor chamber was determined post-experimentally. Each experiment lasts approximately 24 hours, ±2 hours, with samples collected hourly. Receptor fluid 17 was magnetically stirred (27), and the collection flow rate was 10 ml/hr.

Data set [4] is described as follows: In vivo sampling with iontophoresis cell on human forearm. The conditions noted are these: forearm of person; versus in vitro case. The text has this:
The procedure and description above for in vitro sampling is used except that the membrane is replaced by the top of the forearm of a human being. The sampling cell used is the one in FIGS. 7, 8, 9A and 9B.

The nature of data set [5]: In vivo iontophoretic sampling (biosensing) in dog. The text has this:
The sampling of the radioactive clonidine in vitro is described above. […] The operator is alerted when to administer an injection clondine to maintain the desired level of clonidine in the test dog.

Data set [6] in a line: Iontophoretic sampling in vitro (Example 2). Type of data set: in vitro ADME, hairless mouse. The conditions noted are these: 0.5 mA, about 2 hr, about 0.63 mA/cm^2; various concentrations; mean of at least two experiments. As to the method:
Iontophoretic sampling consists of pulling out chemical substances from the body through the skin by means of electricity. In order to test this method, an iontophoretic in-vitro cell is used (FIGS. 1, 2, 3 or 4). Full-thickness hairless mouse skin 13 (8-13 weeks old) is placed between the two parts of the cell. Solutions of radiolabelled drugs of known concentration in phosphate-buffered saline are circulated 10 ml/hr. beneath the skin. On top of the skin there are two self-adhesive gel electrodes, connected to a power supply which is set up in constant current mode (0.5 mA). Current is applied for measured length of time (about 2 hr.) corresponding to about 0.63 mA/cm^2. After the experiment the gel electrodes are taken for scintillation counting, which reflects the amount of drug absorbed by the gel electrodes. Using different drug concentrations with the same electrical current for the same period of time, a linear correlation between the amount is collected by the electrode and drug concentration is expected.

Data set [7] is described as follows: In vitro iontophoretic sampling of glucose through skin into gel electrodes. Format: in vitro ADME, hairless mouse (Skh: hr-1). The conditions noted are these: for Amount Glucose Measured In Gel Electrode per Sample: four time periods; for Iontophoretic Flux sample (amount of glucose sampled in 2 hours): 0.5 mA, (+) electrode; for Sample-glucose: four cells. As to the method: In order to show the ability of the method to sample glucose through the skin, in vitro studies are conducted using hairless mouse skin as the skin model and the iontophoretic diffusion cells in FIGS. 1-13. The results here are applicable to in-vivo sampling from a mammal, particularly a human being. Two self-adhesive gel electrodes (Kenzgelelc, by Nitto Electric Industry Co., Limited, Osaka, Japan) are placed on the same side of a singe continuous piece of hairless mouse skin (full thickness-about 0.5 mm) (Skh: hr-1, 8-13 weeks old). Under the skin, radiolabelled (^14 C-U)-glucose having known concentration in solution in phosphate-buffered saline (0.9% sodium chloride) is perfused, pH of phosphate is about 7.4. Temperature is ambient.
In the first set of experiments, following the assembly of the cell and initiation of the glucose solution perfusion, current is applied (0.5 milliampere) for 2 hours. The voltage may vary from about 1 to 10 volts. Usually, it is about 5 volts. The important parameter to keep constant is the applied current. The voltage may vary based upon the electrical resistance of the sampling site. Then the gel electrodes are disconnected and tested for radioactivity content by conventional liquid scintillation counting. […]. […] (Electrical conditions in the experiments--same constant direct current (dc) but as iontophoretic delivery may also operate in pulsed current, etc., (the pulsed approach should also perform in a predictable way for sampling).
the second set of experiments, using similar experimental set-up as before, a (^14 C-U)-glucose solution of 0.34 mg/ml glucose is phosphate buffered saline is perfused, and the gel electrodes are replaced every 30 minutes.
Since the skin for each single experiment comes from a different mouse, evaluation of each single diffusion cell (means--samples collected through the same piece of skin), eliminating the first sample (the first 0.5 hr. is slightly higher than the others due to the experimental conditions) was done. […]

With `O=S(=O)(O)OC[C@H]1O[C@@](COS(=O)(=O)O)(O[C@H]2O[C@H](COS(=O)(=O)O)[C@@H](OS(=O)(=O)O)[C@H](OS(=O)(=O)O)[C@H]2OS(=O)(=O)O)[C@@H](OS(=O)(=O)O)[C@@H]1OS(=O)(=O)O` [P.S.O.S., Potassium Sucrose Octa Sulfate], in data set [1] (direct current 0.5 mA (0.65 mA/cm^2), 0.6 ml of 1.5 mg/ml solution), the “Transport of P.S.O.S.” value is “up to 5 μg/hr”. Further, the “Amount of P.S.O.S. transferred” value in data set [1] (printed 'with a current' (comparison, same configuration)) is “only a few nanograms”.
Turning to `NC(=O)[C@@H]1CCCN1C(=O)[C@H](Cc1cnc[nH]1)NC(=O)[C@@H]1CCC(=O)N1` [TRH, thyrotropin releasing hormone], the “Iontophoretic flux across excised tissue compared with passive diffusion” value in data set [2] is on record as “greater than those obtained by passive diffusion alone”.
In the case of `Clc1cccc(Cl)c1N=C1NCCN1` [clonidine-HCl, Clonidine HCl], the “Rate of penetration through the skin with current” value in data set [3] (0.63 mA/cm^2) was 15.0 μg/cm^2 /hr. The “Mean rate of diffusion into the receptor phase (passive transport rate)” value in data set [3] (no current) was found to be 0.05 μg/cm^2 /hr. Also, the “Drug found in the buffered saline of chamber 16C” value in data set [3] (no current, after 20 hours) is “no drug was found”. In data set [3] (with current 0.63 mA/cm^2, approximately 20 hours), the “Amount of labelled drug in the buffered saline of chamber 16C” value was 5 µg. The “Amount of clonidine sampled in vivo” value in data set [4] was “comparable to that observed in the in vitro case”. In addition, the “Level of radioactive clonidine measured iontophoretically” value in data set [5] was “quickly and accurately”. Also, the “Linearity of amount sampled versus drug concentration (FIG. 11 and 12)” value in data set [6] was “linearity of the results”.
For `O=C[C@H](O)[C@@H](O)[C@H](O)[C@H](O)CO` [glucose], the “S.D. for individual diffusion cells (individual mouse)” value in data set [7] (0.34 mg/ml glucose, except cell #3) is on record as 4 to 9%. In data set [7] (0.34 mg/ml glucose, first 0.5 hr sample eliminated), the “Amount of glucose sampled, average of four separate cells” value was 0.79 to 0.74 μg. Moreover, in data set [7] (0.153 vs 1.07 mg/ml (concentration ratio 0.143)), the “Ratio A/B of glucose sampled” value was 0.144. Further, the “Sample-glucose, Average” value in data set [7] (average of samples 1-5 (0 - 2 1/2 hr), 0.34 mg/ml glucose, 15 ml/hr) was 0.80 ± 0.19 µg. The “Amount Glucose Measured In Gel Electrode per Sample” value in data set [7] (cell 1, 0.34 mg/ml glucose, 15 ml/hr) amounted to 0.825 ± 0.041 µg; in data set [7] (cell 2, 0.34 mg/ml glucose, 15 ml/hr), 0.963 ± 0.090 µg; in data set [7] (cell 3, 0.34 mg/ml glucose, 15 ml/hr), 0.530 ± 0.115 µg; in data set [7] (cell 5, 0.34 mg/ml glucose, 15 ml/hr), 0.727 ± 0.033 µg. Moreover, the “Correlation between glucose concentration under/in the skin and amount of glucose sampled” value in data set [7] (fixed sampling time, same electrical conditions) is “near-perfect linear correlation; also recorded: clear correlation”. Further, the “Iontophoretic Flux sample (amount of glucose sampled in 2 hours)” value in data set [7] (glucose concentration 0.153 mg/ml) is 0.705 μg/2 hr and 0.705 +/- 0.095 μg/2 hr; in data set [7] (glucose concentration 1.07 mg/ml) it was 4.9 μg/2 hr and 4.9 +/- 0.7 μg/2 hr. For the same compound, the Sample-glucose turned out to be 0.97 ± 0.12 µg in data set [7] (sample 1, 0 - 1/2 hr, 0.34 mg/ml glucose, 15 ml/hr); 0.79 ± 0.09 µg in data set [7] (sample 2, 1/2 - 1 hr, 0.34 mg/ml glucose, 15 ml/hr); 0.76 ± 0.10 µg in data set [7] (sample 3, 1 - 1 1/2 hr, 0.34 mg/ml glucose, 15 ml/hr); 0.75 ± 0.21 µg in data set [7] (sample 4, 1 1/2 - 2 hr, 0.34 mg/ml glucose, 15 ml/hr); 0.74 ± 0.24 µg in data set [7] (sample 5, 2 - 2 1/2 hr, 0.34 mg/ml glucose, 15 ml/hr).
